Data as given in publication PMC10896221, “Elucidating the glycan-binding specificity and structure of Cucumis melo agglutinin, a new R-type lectin” (Beilstein Journal of Organic Chemistry, 2024).

What was measured:
[1] = target: T1, Cucumis melo agglutinin (CMA1) (Cucumis melo, UniProt A0A1S4E5V9); assay: X-ray crystal structure ([…] Å); SPR competition on GalNAc chip; format: binding
T1 construct: gene LOC107992255; full-length CMA1, both CBM13 domains; probably CHO-S expressed with C-terminal His6

[2] = target: T2, Cucumis melo agglutinin (CMA1) (Cucumis melo, UniProt A0A1S4E5V9, L33V); assay: X-ray crystal structure ([…] Å) and ITC; thermal shift with full-length protein; format: binding
T2 construct: gene LOC107992255; CMA1-Nter, N-terminal domain (6–132 in mature protein)
T2 sequence (A0A1S4E5V9 entry or part of it L33V): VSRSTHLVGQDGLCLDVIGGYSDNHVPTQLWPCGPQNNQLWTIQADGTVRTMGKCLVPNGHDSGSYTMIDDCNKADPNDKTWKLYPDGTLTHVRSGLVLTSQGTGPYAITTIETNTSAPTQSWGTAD

T1 sequence (A0A1S4E5V9 entry or part of it): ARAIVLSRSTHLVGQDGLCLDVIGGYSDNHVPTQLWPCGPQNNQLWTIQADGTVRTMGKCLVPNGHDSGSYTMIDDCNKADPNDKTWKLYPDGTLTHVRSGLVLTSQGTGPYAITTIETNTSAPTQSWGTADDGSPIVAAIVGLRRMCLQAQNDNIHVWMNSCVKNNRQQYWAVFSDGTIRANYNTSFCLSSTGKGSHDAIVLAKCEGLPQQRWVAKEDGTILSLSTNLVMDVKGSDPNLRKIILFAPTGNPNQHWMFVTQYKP

Compound | IC50 [1] [µM] | Kd [2] [µM]
CC(=O)N[C@@H]1[C@@H](O)[C@H](O[C@@H]2O[C@H](CO)[C@H](O)[C@H](O)[C@H]2O)[C@@H](CO)O[C@@H]1O [LacNAc, N-acetyllactosamine] | 1.4 | –
CC(=O)N[C@@H]1[C@@H](O)[C@@H](O)[C@@H](CO)O[C@H]1O [GalNAc] | – | 940
